Columns and labels:
Test in all cases: NCI 5-dose assay
Format in all cases: cell-based
HL-60(TB) = conditions: Homo sapiens, Leukemia
Protocol: (§1) The synthesized dichlorobenzimidazoles 10a–p were assayed for their influence on divers cancer cell lines according to the method presented in the Additional file A.
(§2) 5. Screening of cytotoxic activity against a panel of sixty human tumor cell lines
(§3) The selected compounds by NCI were evaluated for their anticancer activity in a two-stage process. First, these compounds were screened against the full NCI 60 cell lines panel at a single high dose of 10 µM. Then, the output from the single dose screen is reported as a mean graph. […]
(§4) at five different minimal concentrations.
(§5) Assay protocol. The human tumor cell lines of the cancer screening panel are grown in RPMI 1640 medium containing 5% fetal bovine serum and 2 mM L-glutamine. For a typical screening experiment, cells are inoculated into 96 well microtiter plates in 100 µL at plating densities ranging from 5000 to 40,000 cells/well depending on the doubling time of individual cell lines. After cell inoculation, the microtiter plates are incubated at 37 °C, 5% CO 2, 95% air and 100% relative humidity for 24 h prior to addition of the experimental drugs.
(§6) After 24 h, two plates of each cell line are fixed in situ with TCA, to represent a measurement of the cell population for each cell line at the time of drug addition (Tz). The experimental drugs are solubilized in dimethyl sulfoxide at 400-fold the desired final maximum test concentration and stored frozen prior to use. At the time of drug addition, an aliquot of frozen concentrate is thawed and diluted to twice the desired final maximum test concentration with complete medium containing 50 µg/mL gentamicin. Additional four, 10-fold or ½ log serial dilutions are made to provide a total of five drug concentrations plus control.
(§7) Aliquots of […] of these different drug dilutions are added to the appropriate microtiter wells already containing […] of medium, resulting in the required final drug concentrations.
(§8) Following drug addition, the plates are incubated for an additional 48 h at 37 °C, 5% CO 2, 95% air, and 100% relative humidity. For adherent cells, the assay is terminated by the addition of cold TCA.
(§9) Cells are fixed in situ by the gentle addition of 50 µL of cold 50% (w/v) TCA (final concentration, 10% TCA) and incubated for 60 min at 4 °C. The supernatant is discarded, and the plates are washed five times with tap water and air dried. Sulforhodamine B (SRB) solution ([…]) at 0.4% (w/v) in 1% acetic acid is added to each well, and plates are incubated for 10 min at room temperature. After staining, unbound dye is removed by washing five times with 1% acetic acid and the plates are air dried. Bound stain is subsequently solubilized with 10 mM trizma base, and the absorbance is read on an automated plate reader at a wavelength of 515 nm. For suspension cells, the methodology is […]
(§10) the same except that the assay is terminated by fixing settled cells at the bottom of the wells by gently adding 50 µl of 80% TCA (final concentration, 16% TCA). Using the seven absorbance measurements [time zero, (Tz), control growth, (C), and test growth in the presence of drug at the five concentration levels (Ti)], the percentage growth is calculated at each of the drug concentrations […]
(§11) Percentage growth inhibition is calculated as: [(Ti Tz)/(C–Tz)] x 100 for concentrations for which Ti>/=Tz and [(Ti-Tz)/Tz] x 100 for concentrations for which Ti < Tz.
(§12) Three dose response parameters are calculated for each experimental agent. Growth […]
(§13) concentration resulting in a 50% reduction in the net protein increase (as measured by SRB staining) in control cells during the drug incubation. The drug concentration resulting in total growth inhibition (TGI) is calculated from Ti = Tz. […]
(§14) reduction in the measured protein at the end of the drug treatment as compared to that at the beginning) indicating a net loss of cells following treatment is calculated from [(Ti–Tz)/Tz] x 100 =
(§15) _50. Values are calculated for each of these three parameters if the level of activity is reached; […]

M14 = conditions: Homo sapiens; M14, Melanoma
Protocol: as §1, §2, §3, §4, §5, §6, §7, §8, §9, §10, §11, §12, §13, §14, §15

EKVX = conditions: Homo sapiens, Non-small cell lung cancer
Protocol: as §1, §2, §3, §4, §5, §6, §7, §8, §9, §10, §11, §12, §13, §14, §15

UACC-62 = conditions: Homo sapiens; UACC-62, Melanoma
Protocol: as §1, §2, §3, §4, §5, §6, §7, §8, §9, §10, §11, §12, §13, §14, §15

CAKI-1 = conditions: Homo sapiens; CAKI-1, Renal cancer
Protocol: as §1, §2, §3, §4, §5, §6, §7, §8, §9, §10, §11, §12, §13, §14, §15

SF-295 = conditions: Homo sapiens; SF-295, CNS cancer
Protocol: as §1, §2, §3, §4, §5, §6, §7, §8, §9, §10, §11, §12, §13, §14, §15

MDA-MB-231/ATCC = conditions: Homo sapiens, Breast cancer
Protocol: as §1, §2, §3, §4, §5, §6, §7, §8, §9, §10, §11, §12, §13, §14, §15

K-562 = conditions: Homo sapiens, K562; K-562, Leukemia
Protocol: as §1, §2, §3, §4, §5, §6, §7, §8, §9, §10, §11, §12, §13, §14, §15

COLO 205 = conditions: Homo sapiens; COLO 205, Colon cancer
Protocol: as §1, §2, §3, §4, §5, §6, §7, §8, §9, §10, §11, §12, §13, §14, §15

OVCAR-4 = conditions: Homo sapiens; OVCAR-4, Ovarian cancer
Protocol: as §1, §2, §3, §4, §5, §6, §7, §8, §9, §10, §11, §12, §13, §14, §15

HT29 = conditions: Homo sapiens, HT-29; HT29, Colon cancer
Protocol: as §1, §2, §3, §4, §5, §6, §7, §8, §9, §10, §11, §12, §13, §14, §15

IGROV1 = conditions: Homo sapiens, IGROV-1; IGROV1, Ovarian cancer
Protocol: as §1, §2, §3, §4, §5, §6, §7, §8, §9, §10, §11, §12, §13, §14, §15

MOLT-4 = conditions: Homo sapiens; MOLT-4, Leukemia
Protocol: as §1, §2, §3, §4, §5, §6, §7, §8, §9, §10, §11, §12, §13, §14, §15

786-0 = conditions: Homo sapiens; 786-0, Renal cancer
Protocol: as §1, §2, §3, §4, §5, §6, §7, §8, §9, §10, §11, §12, §13, §14, §15

MALME-3M = conditions: Homo sapiens, Melanoma
Protocol: as §1, §2, §3, §4, §5, §6, §7, §8, §9, §10, §11, §12, §13, §14, §15

BT-549 = conditions: Homo sapiens; BT-549, Breast cancer
Protocol: as §1, §2, §3, §4, §5, §6, §7, §8, §9, §10, §11, §12, §13, §14, §15

RXF 393 = conditions: Homo sapiens; RXF 393, Renal cancer
Protocol: as §1, §2, §3, §4, §5, §6, §7, §8, §9, §10, §11, §12, §13, §14, §15

MDA-MB-468 = conditions: Homo sapiens; MDA-MB-468, Breast cancer
Protocol: as §1, §2, §3, §4, §5, §6, §7, §8, §9, §10, §11, §12, §13, §14, §15

SNB-19 = conditions: Homo sapiens; SNB-19, CNS cancer
Protocol: as §1, §2, §3, §4, §5, §6, §7, §8, §9, §10, §11, §12, §13, §14, §15

SF-268 = conditions: Homo sapiens; SF-268, CNS cancer
Protocol: as §1, §2, §3, §4, §5, §6, §7, §8, §9, §10, §11, §12, §13, §14, §15

CCRF-CEM = conditions: Homo sapiens, Leukemia
Protocol: as §1, §2, §3, §4, §5, §6, §7, §8, §9, §10, §11, §12, §13, §14, §15

SNB-75 = conditions: Homo sapiens; SNB-75, CNS cancer
Protocol: as §1, §2, §3, §4, §5, §6, §7, §8, §9, §10, §11, §12, §13, §14, §15

OVCAR-3 = conditions: Homo sapiens; OVCAR-3, Ovarian cancer
Protocol: as §1, §2, §3, §4, §5, §6, §7, §8, §9, §10, §11, §12, §13, §14, §15

Structure (SMILES)	GI50 (HL-60(TB)) [µM]	GI50 (M14) [µM]	GI50 (EKVX) [µM]	GI50 (UACC-62) [µM]	GI50 (CAKI-1) [µM]	GI50 (SF-295) [µM]	GI50 (MDA-MB-231/ATCC) [µM]	GI50 (K-562) [µM]	GI50 (COLO 205) [µM]	GI50 (OVCAR-4) [µM]	GI50 (HT29) [nM]	GI50 (IGROV1) [µM]	GI50 (MOLT-4) [µM]	GI50 (786-0) [µM]	GI50 (MALME-3M) [µM]	GI50 (BT-549) [µM]	GI50 (RXF 393) [nM]	GI50 (MDA-MB-468) [nM]	GI50 (SNB-19) [µM]	GI50 (SF-268) [µM]	further results
COC(=O)COc1ccc(C=NNC(=O)Cn2c(-c3ccc(OC)cc3)nc3cc(Cl)c(Cl)cc32)cc1 [Compound 10h, Methyl-2-(4-((2-(2-(5,6-dichloro-2-(4-methoxyphenyl)-1H-benzo[d]imidazol-1-yl)acetyl)hydrazono)methyl)phenoxy)acetate]	> 82.5	17.5	18.8	10.1	5.74	> 82.5	6.66	11.3	16.5	17.2	1790	4.06	5.36	3.01	9.18	25.6	2850	1680	> 82.5	10.1	GI50 (CCRF-CEM): 4.78 µM; GI50 (SNB-75): 2140 nM; GI50 (OVCAR-3): 10.6 µM
COC(=O)COc1cc(C=NNC(=O)Cn2c(-c3ccc(OC)cc3)nc3cc(Cl)c(Cl)cc32)ccc1OC [Compound 10o, Methyl-2-(5-((2-(2-(5,6-dichloro-2-(4-methoxyphenyl)-1H-benzo[d]imidazol-1-yl)acetyl)hydrazono)methyl)-2-methoxyphenoxy)acetate]	> 100	> 100	89.2	14.5	15.3	> 100	16.1	> 100	> 100	20.5	12900	14.7	14.2	17.9	> 100	> 100	11000	4400	> 100	> 100	GI50 (CCRF-CEM): > 100 µM; GI50 (SNB-75): 14400 nM; GI50 (OVCAR-3): > 100 µM
COC(=O)COc1ccc(C=NNC(=O)Cn2c(-c3ccc(OC)cc3)nc3cc(Cl)c(Cl)cc32)cc1OC [Compound 10p, Methyl-2-(4-((2-(2-(5,6-dichloro-2-(4-methoxyphenyl)-1H-benzo[d]imidazol-1-yl)acetyl)hydrazono)methyl)-2-methoxyphenoxy)acetate]	> 72.5	> 72.5	18.9	6.52	2.77	> 72.5	13.8	> 72.5	18.2	23	1460	3.6	> 72.5	2.21	> 72.5	> 72.5	1430	1480	> 72.5	32.4	GI50 (CCRF-CEM): > 72.5 µM; GI50 (SNB-75): 1730 nM; GI50 (OVCAR-3): > 72.5 µM
